“Also recorded” adds a separate entry of the source. No end group written: not given here.
Key:
[1] = Activity on oral administration (statement, no separate method); assay type: in vivo, mammalian
CB1 receptor [2] = assay: ELISA with striate membranes and anti-CB1 antibody, receptor activating percentage vs non-treated membrane; assay type: biochemical; conditions: 2 hours; for activity regarding the CB1 (receptor activating percentage regarding control): striate membranes 5 μg/pool, 1 μM of each drug, ambient temperature, variants compared with SeqID:1
Experimental: (§1) The receptor activating percentage was calculated regarding the control, non-treated membrane (100%). […] Significant differences are indicated and p<0.05.

CB2 receptor = assay: ELISA with striate membranes for CB2 receptor, receptor activating percentage vs non-treated membrane; assay type: biochemical; conditions: striate membranes 5 μg/pool, 1 μM of each drug, 2 hours, ambient temperature
Experimental: as §1

[3] = Depression model (forced swim); assay type: in vivo; conditions: rats
Experimental: The forced swim test was performed based on the previous tests ([Harkin et al., 2004], [Petit-Demouliere et al., 2005] and [Treit and Menard, 1998]).

[4] = Test in brown adipose tissue, 3 days oral treatment; assay type: in vivo, Thin wistar rats
Experimental: (§2) Furthermore, in a treatment acute model (3 days of treatment orally in non-obese wistar rats) it was verified the brown adipose tissue activation, the retroperitoneal, inguinal and brown adipose tissues reduction, as well the adiposity ratio (FIGS. 4 to 9), effects not observed with Rimonabant.
The measure of the adipose tissue was performed after finishing the treatment. The results are expressed by the brown adipose tissue weight measured at the treatment end (scale of g/100 g). Rats administered with vehicle (saline) were subject to the same protocol (control).

[5] = Cholesterol in animals supplemented with 20% sucrose, 30 days-treatment; assay type: in vivo, Wistar rats; conditions: Rimonabant (positive control, dose not given), after 30 days-treatment
Experimental: (§3) Wistar rats fed with standard regimen supplemented with 20% sucrose were used in the drinking water during 60 days before and during the 30 days-treatment with SALINE (negative control), Rimonabant (positive control), Peptide 19 (Pep 19) in the concentration of 50 μg/Kg and Peptide 19 (Pep 19) in the concentration of 100 μg/Kg.

[6] = Adiposity ratio determination, 3 days oral treatment; assay type: in vivo, Thin wistar rats; conditions: 100 ug/Kg, 3 days orally, vs Rimonabant and/or saline groups
Experimental: as §2
Thin wistar rats were treated with a Rimonabant dosage (100 ug/Kg) or peptide 19 (Pep 19 100 ug/Kg) during 3 days orally. The measure of the adiposity ratio was performed after finishing the treatment using the formula (%), (I=Σ fat deposits/body weight×100). The results are expressed by the animal weight measured at the treatment end (scale of g/100 g). Rats administered with vehicle (saline) were subject to the same protocol (control).

[7] = Test in inguinal adipose tissue, 3 days oral treatment; assay type: in vivo, Thin wistar rats; conditions: 100 ug/Kg, 3 days orally, vs Rimonabant and/or saline groups
Experimental: as §2
The measure of the adipose tissue was performed after finishing the treatment. The results are expressed by the inguinal adipose tissue weight measured at the treatment end (scale of g/100 g). Rats administered with vehicle (saline) were subject to the same protocol (control).

[8] = prior art statement; cited from earlier work
[9] = Glucose in animals supplemented with 20% sucrose, 30 days-treatment; assay type: in vivo, Winstar rats; conditions: Rimonabant (positive control, dose not given), 15th and 30th days of treatment
Experimental: as §3, with “Winstar” for “Wistar”

[10] = Test in retroperitoneal adipose tissue, 3 days oral treatment; assay type: in vivo, Thin wistar rats; conditions: 100 ug/Kg, 3 days orally, vs Rimonabant and/or saline groups
Experimental: as §2
The measure of the adipose tissue was performed after finishing the treatment. The results are expressed by the retroperitoneal adipose tissue weight measured for treatment purpose (scale of g/100 g). Rats administered with vehicle (saline) were subject to the same protocol (control).

CB1 receptor [11] = target: CB1 receptor (Homo sapiens, UniProt P21554); conditions: disclosed in WO 2011/011847; cited from earlier work
CB1 receptor (Homo sapiens, UniProt P21554), sequence (P21554 whole entry): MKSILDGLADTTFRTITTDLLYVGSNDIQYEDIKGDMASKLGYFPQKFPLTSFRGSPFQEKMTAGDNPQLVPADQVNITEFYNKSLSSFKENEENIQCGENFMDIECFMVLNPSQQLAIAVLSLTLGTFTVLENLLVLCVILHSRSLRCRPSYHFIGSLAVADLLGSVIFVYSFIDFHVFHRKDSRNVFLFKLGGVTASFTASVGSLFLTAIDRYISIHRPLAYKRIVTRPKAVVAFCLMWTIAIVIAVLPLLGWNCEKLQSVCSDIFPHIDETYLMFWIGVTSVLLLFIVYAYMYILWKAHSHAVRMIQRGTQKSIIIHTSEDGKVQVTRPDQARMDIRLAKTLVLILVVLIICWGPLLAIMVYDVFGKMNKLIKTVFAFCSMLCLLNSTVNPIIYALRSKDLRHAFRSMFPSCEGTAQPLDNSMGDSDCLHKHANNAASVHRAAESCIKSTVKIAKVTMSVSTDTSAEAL

[12] = Pain test: carrageenan-induced hyperalgesia, intraplantar administration; assay type: in vivo, Rats; conditions: 20 g by leg, immediately before carrageenan 200 g by leg, 0 h and 3 h
Experimental: It was performed the comparative analysis of the peptide intraplantar administration over the carrageenan-induced hyperalgesia. Rats were treated with peptide ([…]) immediately before the carrageenan intraplantar administration ([…]) and were evaluated using a pressure apparatus […] (0 h and empty legs) and 3 h after administration of carrageenan (black legs).

DIIADDEALT [Modified peptide 5]
activity when administered orally [1]: has activity even when orally administered
activity in CB1 / endocannabinoid receptors in high dosages (CB1 receptor [2]; different dosages of drug, high dosages, listed as SeqID:5): agonist activity
activity in CB1 / endocannabinoid receptors in low dosages (CB1 receptor [2]; different dosages of drug, low dosages, listed as SeqID:5): activity inverse agonist

DIIADDE [Modified peptide 4]
activity when administered orally [1]: has activity even when orally administered
activity regarding the CB1 (receptor activating percentage regarding control) (CB1 receptor [2]; listed as SeqID:4): improved inverse agonist activity

third amino acid of the SeqID:1 (isoleucine amino acid) was replaced for threonine: sequence wherein the third amino acid of the SeqID:1 (isoleucine) was replaced for threonine (DITADDEPLT; Artificial peptide modulator of cannabinoid receptors)
activity in CB2 (receptor activating percentage regarding control) (CB2 receptor): have not demonstrated activity detectable
activity regarding the CB1 (receptor activating percentage regarding control) (CB1 receptor [2]): biological activity loss; also recorded: have not demonstrated activity detectable

DIIADDEPLT [Modified peptide 1, Asp-Ile-Ile-Ala-Asp-Asp-Glu-Pro-Leu-Thr]
depression in forced swim test (immobility time) [3]: does not cause depression

Cyclic Peptide -Asp-Ile-Ile-Ala-Asp-Asp-Glu-Pro-Leu-Thr- (DIIADDEPLT; cyclic; Artificial cyclic peptide modulator of cannabinoid receptors) [Modified peptide 6]
activity when administered orally [1]: has activity even when orally administered

Cc1c(C(=O)NN2CCCCC2)nn(-c2ccc(Cl)cc2Cl)c1-c1ccc(Cl)cc1 [Rimonabant]
brown adipose tissue mass ([4]; 100 ug/Kg, 3 days orally, vs Rimonabant and/or saline groups): not observed
brown adipose tissue activation ([4]; 3 days of treatment orally in non-obese wistar rats): not observed
cholesterol in % from SALINE animals [5]: lower cholesterol percentages
adiposity ratio [6]: not observed
inguinal adipose tissue mass [7]: not observed
crossing the hematoencephalic barrier [8]: crossing the hematoencenphalic layer
glycaemia [9]: lower glycaemia
retroperitoneal adipose tissue mass [10]: not observed

DILADDEPLT [Modified peptide 2]
activity in CB2 (receptor activating percentage regarding control) (CB2 receptor; listed as SeqID:2): inverse agonist
activity when administered orally [1]: has activity even when administered orally

CC(C)C[C@H](NC(=O)[C@H](Cc1ccccc1)NC(=O)[C@H](CCCCN)NC(=O)[C@H](Cc1ccccc1)NC(=O)[C@H](CC(N)=O)NC(=O)[C@@H](NC(=O)[C@@H]1CCCN1)C(C)C)C(=O)N[C@@H](CO)C(=O)N[C@@H](Cc1cnc[nH]1)C(=O)O [hemopressin]
crossing the hematoencephalic barrier [8]: does not cross the hematoencephalic barrier
binding to the CB1 receptor (CB1 receptor [11]): binding efficiently
antihyperalgesic activity [12]: antihyperalgesic activity

DIIADDAPLT [Modified peptide 3]
activity when administered orally [1]: has activity even when orally administered
activity regarding the CB1 (receptor activating percentage regarding control) (CB1 receptor [2]; listed as SeqID:3): smaller activity

— patent US9796760B2, “Modified peptide, CB receptor ligand, kit in vitro process for evaluating CB receptor bonds, uses, pharmaceutical composition for modulating CB receptor activity” (Proteimax Biotecnologia Ltda, priority 2012, dated 2017)
